# From US12252472B1, “Barbituric acid derivatives, their preparation and use thereof as leukocyte transmigration inhibitors and for treating inflammatory diseases, autoimmune diseases and cancer” (BAR-ILAN UNIVERSITY, priority 2017, dated 2025)
# Assays:
# [1] = test system: primary human monocytes on TNF-alpha-activated HUVECs; test: Shear flow assay: monocyte adhesion and transmigration on TNFα-activated HUVECs; format: cell-based; settings: for Level of Transmigration Blockage (%) / Monocyte adhesion / inhibition at 30 µM: 30 μM; for Level of Transmigration Blockage (%): monocytes on TNF-activated HUVECs under flow 0.05 Pa; for Monocyte adhesion: flow 0.05 Pa for 30 minutes; for inhibition at 30 µM: Table 2, read-out: monocyte-rolling inhibition
# Excerpt: A flow assay that allows detailed analysis of individual leukocyte interactions with endothelial cells (ECs), described in Bradfield et al. (Bradfield et al., 2016, PloS One, July 21; 11(7); Bradfield et al., 2007, Blood. October 1; 110(7):2545-55) was used for evaluation of the biological effects of the compounds according to the invention. This method allows the determination of the possible effects of the compounds on three major phases in leukocyte migration: the capture of free non-bound leukocytes by endothelium, migration of leukocytes on the endothelium surface, and transendothelial migration (transmigration) of human leukocytes through the HUVECs layer. Post transmigrational events can also be monitored by tracking individual leukocytes. […] Human umbilical vein endothelial cells (HUVECs) were cultivated in the plastic channel of the flow chamber, and human leukocyte were flowed over them using a calibrated pump, allowing monocyte capture, adhesion and migration to be monitored.
# Human umbilical vein endothelial cells (HUVEC) were isolated by collagenase treatment of umbilical veins as previously described (Wall, R. T., et al., Factors influencing endothelial cell proliferation in vitro. J Cell Physiol, 1978. 96(2): p. 203-13) and maintained in M199 containing 20% fetal calf serum (FCS), 15 μg/mL endothelial cell growth supplement (Upstate Biotechnology, Lake Placid, NY), 100 μg/mL heparin, 50 μM hydrocortisone, and 10 μg/mL vitamin C. Cells were cultured up to a maximum of passage 5.
# Peripheral blood mononuclear cells (PBMCs) were first isolated from blood of healthy donors followed by monocyte purification using a monocyte isolation kit (Miltenyi Biotec, Bergisch Gladbach, Germany). Purity and activity of monocytes were controlled by flow cytometry by labelling with anti-CD14 and anti-CD62L. Only populations of 90% or more double positive cells were used.
# (§1) Flow assays were conducted as described in a previous study (Bradfield, P. F., et al., JAM-C regulates unidirectional monocyte transendothelial migration in inflammation. Blood, 2007. 110(7): p. 2545-55). HUVECs were cultured at 1×10^5 cells/slide on Ibidi 6-chamber slides (80606; Ibidi) before treatment with TNFα (500 U/mL) for 6-10 hours. An individual chamber outlet was then attached to a calibrated pump (74 900; Cole Partner, Vernon Hills, IL) and flow was generated by perfusing wash buffer (M199 with 0.15% BSA) or a monocyte suspension (2.5×10^6 cells/mL) over the HUVEC monolayer. The flow rate was representative of shear rates in small venules (0.05 Pa). Observations made using phase-contrast microscopy (Model: Axiovert 100; Objective: 20×/0.3 NA air; Carl Zeiss) were recorded using a high-resolution camera (D70; Nikon, Zurich, Switzerland). Individual images were recorded every 30 seconds with Nikon capture software (v4.2) and compiled into movie sequences using Adobe Photoshop (CS6) and Image J (v1.5d), allowing analysis of individual monocytes over large areas. The tested compounds, e.g. compounds of the general Formula (I), were maintained at the specified concentration in all wash buffers throughout the course of the experiment. The compounds were preincubated separately on both HUVECs and monocytes 15 minutes prior to flow co-culture. HUVEC monolayers were washed for 10 minutes prior to a compound wash-in step to allow for this preincubation period. The monocyte suspension was then perfused over HUVECs for 4 minutes followed by 20 to 60 minutes with wash buffer. Time-lapse recording was started upon monocyte first-contact with the monolayer. Monocyte adhesion data are presented as the total number of monocytes per unit field. Transmigration events are presented as a percentage of total monocytes captured from flow per unit field. All experiments were carried out using quadruplicate fields and are presented as a mean value (±SEM).
# A timeline is shown to represent the positioning and timing of an individual monocyte during movie analysis (marked ‘Timeline’). […]
# [2] = test system: B cells; test: B-lymphocyte adhesion and transmigration, MesenFlow assay; format: cell-based; settings: 30 μg/ml
# Description: as §1, with “HUVEC monolayers were washed for 10 minutes prior to a compound wash-in step to allow for this preincubation period. The monocyte suspension was then perfused over HUVECs for 4 minutes followed by 20 to 60 minutes with wash buffer. Time-lapse recording was started upon monocyte first-contact with the monolayer. Monocyte adhesion data are presented as the total number of monocytes per unit field. Transmigration events are presented as a percentage of total monocytes captured from flow per unit field. All experiments were carried out using quadruplicate fields and are presented as a mean value (±SEM).” left out
Compound,Level of Transmigration Blockage (%) [1] [%],Monocyte adhesion [1],"inhibition at 30 µM ([1]; Homo sapiens, HUVEC) [%]",also measured
"COC(=O)c1ccc(COc2cccc(C=C3C(=O)NC(=O)NC3=O)c2)cc1 [Formula 1, Methyl 4-((3-((2,4,6-trioxo-tetrahydropyrimidin-5(2H)-ylidene)methyl)phenoxy)methyl) benzoate]",81,–,–,–
"Tysabri®: an antibody against alpha 4 integrin, used as a positive control [reference compound]",–,–,–,number of transmigrated B cells [2]: no net effect
"O=C1NC(=O)C(=Cc2c3ccccc3cc3ccccc23)C(=O)N1 [Formula 10, 5-(anthracen-9-ylmethylene)pyrimidine-2,4,6(1H,3H,5H)-trione]",92,unaffected,> 90,"IC50 ([1]; Homo sapiens, HUVEC, flow 0.05 Pa, n=3): 300 nM; Emax ([1]; Homo sapiens, HUVEC, monocyte transmigration inhibition, read-out: maximal efficacy): 40%; concentration below which not active on monocyte transmigration ([1]; dose response, 100 μM to 3 nM): below 30 nM; monocyte transmigration ([1]; dose response, concentrations higher than 30 nM): partial effect; monocyte transmigration ([1]; dose response, high concentrations (100 μM)): Total blocking; time of the maximal effect ([1]; monocyte transmigration, read at 10, 15, 20 and 25 minutes): 25 min"
"COC(=O)c1ccc(COc2c(C)cc(C=C3C(=O)NC(=O)NC3=O)cc2C)cc1 [Formula 4, Methyl 4-((2,6-dimethyl-4-((2,4,6-trioxotetrahydro-pyrimidin-5(2H)ylidene)methyl)phenoxy)methyl) benzoate]",75,–,–,–
"O=C1NC(=O)C(=Cc2ccccc2OCc2cccc(C(=O)O)c2)C(=O)N1 [Formula 6, 3-((2-((2,4,6-trioxo-tetrahydropyrimidin-5(6H)-ylidene)methyl)phenoxy)methyl)benzoic acid]",78,–,–,–
"COC(=O)c1cccc(COc2cccc(C=C3C(=O)NC(=O)NC3=O)c2)c1 [Formula 9, Methyl 3-((3-((2,4,6-trioxo-tetrahydropyrimidin-5(2H)-ylidene)methyl)phenoxy)methyl) benzoate]",98,unaffected,> 90,–
